According to patent US6063819A (priority 1998, dated 2000):
“Also recorded” adds a separate entry of the source. Where two headings read alike, the source gives them in different places.

How the values were obtained:
[1] = test system: neurons of the CA1 region of the hippocampus; test: Hippocampal slice assay: protection of CA1 neurons against hypoxic injury (recovery of population spike); format: cell-based, male Sprague-Dawley rats; settings: for relative potency in hippocampal slices: comparison CYP-PA2 with CYP-PA1, or CYP-PA2X with CYP-PA2; for EC50: Rattus norvegicus, Neuron, 1 h, 50% recovery 60 minutes after hypoxia
Method: (2) Additional in vitro tests involving perfused slices of hippocampal tissue from the brains of sacrificed rats, as described in Example 8. Various poly-guanidino candidates with good combinations of N-channel and P/Q-channel blocking potency (as shown in the ligand blocking assays of Example 7) were tested to determine their ability to protect hippocampal neurons against damage during and after a period of tissue hypoxia.
The ability of CYP-PA1 and CYP-PA2 to protect against hypoxic injury in neurons of the CA1 region of the hippocampus was examined, using an assay which involves intact tissue sections taken from the hippocampal regions of rat brains. To carry out these assays, male Sprague-Dawley rats were briefly anesthetized with halothane and decapitated. Brains were quickly removed and placed in cold artificial cerebral spinal fluid (ACSF) for one minute. ACSF was composed of (in mM): NaCl, 126; KCl, 4; KH2 PO4, 1.4; MgSO4, 1.3; CaCl2, 2.4; NaHCO3, 26; and glucose, 4; pH 7.4, saturated with 95% O2, 5% CO2. Hippocampi were dissected free from the brains, and cut into 475 μm transverse sections (also called slices). The slices were placed in paired recording wells perfused with ACSF maintained at 37° C. Several hippocampal slices were placed in each recording well.
One hour after placement of the tissue slices into recording wells, the orthodromic CA1 population spike (PS) was measured. This indicator of synaptic and neuronal cell body function was elicited by stimulation with a twisted bipolar electrode placed over the CA3 Schaffer collaterals. Responses were recorded in the pyramidal layer of CA1, using a tungsten electrode. Strengths of currents and recording electrode depth were adjusted to obtain maximal amplitude of the CA1 PS. Only slices having an orthodromic CA1 PS of 3 mV or greater on initial assessment were used for further testing.
One tissue slice in each well was given orthodromic stimulation every 30 seconds throughout the experiment, in order to monitor evoked response activity. These slices were designated as "stimulated slices." In general, periodic stimulation provides an even more rigorous test of neuroprotective ability, since the repeated stimulation forces neurons to use up their metabolic resources after each impulse, to reestablish a polarized and ready-to-fire status.
For the remaining slices in each well, orthodromic and antidromic PS amplitude was assessed at the beginning and end of each experiment, without any periodic stimulation. These slices were designated as "unstimulated slices."
All slices were subjected to hypoxia by changing the perfusion medium to oxygen-devoid ACSF saturated with 95% N2, 5% CO2. Slices in one recording well additionally received exposure to various concentrations of the poly-guanidino compounds discussed above, added directly into the perfusion ACSF. Hypoxic duration was continued until 5 minutes after the disappearance of the hypoxic injury potential (Fairchild et al 1988) in the unmedicated stimulated slice. Final recovery was assessed 60 minutes after returning to oxygenated conditions. Exposure to the poly-guanidino compounds began 30 minutes prior to hypoxia and continued through the first 15 minutes of recovery.

L-type channels = settings: background; cited from earlier work
T channels = settings: background; cited from earlier work
[2] = test system: neurons in CA1 and CA2 fields of the hippocampus and in the subiculum; test: In vivo protection against global brain ischemia (bilateral carotid occlusion, gerbils); design: species or system Adult male Mongolian gerbils; settings: for median number of visibly damaged neurons, CA2: saline controls 23.9; for median number of visibly damaged neurons, Subiculum: saline controls 214.0; for median number of visibly damaged neurons, CA1: saline controls 235.5; for protection against ischemia: gerbils, IP
Method: Adult male Mongolian gerbils, 50 to 60 grams body weight, were put under methoxyflurane anesthesia and surgically subjected to reversible bilateral carotid occlusion for 5 minutes, using published methods (Wasterlain et al 1996). Occlusion was produced by exposure of both common carotid arteries via a ventral midline incision, isolation of the carotids with 4-0 silk suture, and application of microaneurysm clips. After five minutes of occlusion, the clips were removed, and the incision was closed. Body temperature was maintained at 37° C. throughout the surgical and recovery periods.
Blockage of both common carotids generates global brain ischemia in most gerbils. However, some gerbils contain a vascular structure at the base of the brain which resembles the Circle of Willis in humans, which allows some commingling of oxygenated blood from the carotid and vertebral arteries. Accordingly, the surgical method of generating global ischemia in gerbils by clamping flow through the carotids is not completely reliable in all test animals. To overcome this problem, a sufficient number of gerbils must be treated and tested to ensure statistically significant and reliable results.
A solution containing the test compound (or saline, as a control) was administered at the dosage and time described below, via intraperitoneal (IP) injection. The gerbils were sacrificed 72 hours later, and the brains were perfusion-fixed with paraformaldehyde. Serial sections of the brain were cut and stained with hematoxylin and eosin, and quantitative cell counts of live and dead neurons in the CA1 and CA2 fields of the hippocampus and in the subiculum were made, using both light and fluorescence microscopy. Evaluation of neuronal damage in other brain regions was also made on a semi-quantitative scale, and statistical analysis was performed on all damage scores (non-paired Student's T test).
The in vivo tests involving the CYP-PA2 compound used two different dosage regimens. One set of test animals received two injections: 30 mg/kg, at 30 minutes prior to the start of ischemia, and another 30 mg/kg at 90 minutes after the termination of ischemia. […] This neuroprotective activity was statistically significant at higher than the 95% level. A second set of test animals received a smaller dosage (10 mg/kg) of CYP-PA2, in a single injection 30 minutes before the onset of ischemia.
Tests on the CYP-PA1 compound used three different dosage levels: 7.5 mg/kg, injected 30 minutes before occlusion began; 20 mg/kg, injected 30 minutes before occlusion began; and 20 mg/kg, injected 30 minutes after occlusion was terminated.
The values reported in Table 3 are median numbers of visibly damaged neurons, counted in a single entire tissue slice.

[3] = LD50 toxicity test, intraperitoneal injection in mice; format: in vivo; settings: for LD50: mouse, in vivo, ip
Method: At roughly the same time as the hippocampal tissue tests were being carried out, various polyamine compounds were also tested in toxicity tests, using conventional LD50 tests in mice. […] According, subsequent in vivo tests focused mainly on the CYP-PA1 compound.
These tests used intraperitoneal (IP) injection in mice.

L-type calcium channels = test: Competitive inhibition of 3H-PN200-110 (or 3H-nitrendipine) binding to L-type calcium channels, rat brain neuronal membranes; settings: Table 1
[4] = stimulated slices, antidromic, read-out: EC50, antidromic PS amplitude, stimulated slices
[5] = stimulated slices, orthodromic, read-out: EC50, orthodromic PS amplitude, stimulated slices
[6] = unstimulated slices, antidromic, read-out: EC50, antidromic PS amplitude, unstimulated slices
[7] = unstimulated slices, orthodromic, read-out: EC50, orthodromic PS amplitude, unstimulated slices
[8] = 20 mg/kg IP post (30 minutes after occlusion terminated)

SMILES | relative potency in hippocampal slices [1] | binding to L-type channels (L-type channels) | binding to T channels (T channels) | neuroprotective activity in hippocampal slices [1] | EC50 [1, 4] [µM] | EC50 [1, 5] [µM] | EC50 [1, 6] [µM] | EC50 [1, 7] [µM] | protection against ischemia [2] | IC50 (L-type calcium channels) [µM] | other results
N=C(N)NCCC[C@H](NC(=O)[C@@H](N)CCCNC(=N)N)C(=O)NCCN(CCN)CCNC(=O)[C@H](CCCNC(=N)N)NC(=O)[C@@H](N)CCCNC(=N)N [CYP-PA2X] | not as potent as the fully di-arginylated compound CYP-PA2 | – | – | – | – | – | – | – | – | – | –
COC(=O)C1=C(C)NC(C)=C(C(=O)OCCN(C)Cc2ccccc2)C1c1cccc([N+](=O)[O-])c1 (centres unmarked) [nicardipine] | – | bind to L-type channels | not to T or N channels | – | – | – | – | – | – | – | –
COC(=O)C1=C(C)NC(C)=C(C(=O)OC)C1c1ccccc1[N+](=O)[O-] [nifedipine] | – | bind to L-type channels | not to T or N channels | – | – | – | – | – | – | – | –
N=C(N)NCCC[C@H](N)C(=O)NCCN(CCNC(=O)[C@@H](N)CCCNC(=N)N)CCNC(=O)[C@@H](N)CCCNC(=N)N [CYP-PA1, tris(arginyl-2-aminoethyl)amine] | – | – | – | substantial neuroprotective activity | 95 | 97 | 87 | 90 | quite substantial and beneficial; also recorded: substantial and beneficial protection against actual ischemia | > 300 | median number of visibly damaged neurons, CA2 ([2]; 7.5 mg/kg IP pre-occlusion): 15.2; median number of visibly damaged neurons, Subiculum ([2]; 7.5 mg/kg IP pre-occlusion): 91.5; median number of visibly damaged neurons, CA1 ([2]; 7.5 mg/kg IP pre-occlusion): 37.5; median number of visibly damaged neurons, CA2 [2, 8]: 14.7; median number of visibly damaged neurons, Subiculum [2, 8]: 31.0; median number of visibly damaged neurons, CA1 [2, 8]: 14.5; median number of visibly damaged neurons, CA2 ([2]; 20 mg/kg IP pre-occlusion): 10.4; median number of visibly damaged neurons, Subiculum ([2]; 20 mg/kg IP pre-occlusion): 38.5; median number of visibly damaged neurons, CA1 ([2]; 20 mg/kg IP pre-occlusion): 18.0; significance of reduction in neuronal damage, CA2 ([2]; CA2 region): did not rise to the level of significance at the 95% confidence level; number of injured neurons vs saline-treated controls ([2]; all treatment dosages): substantially reduced; significance level of reduction in neuronal damage, subiculum and CA1 ([2]; subiculum and CA1 regions): ≥ 98%; toxicity: lethal or other adverse effects ([3]; IP, even at highest dosage tested (200 mg/kg)): no detectable lethal or other adverse effects; also recorded: completely free of any toxicity concerns
Fc1ccc(C(c2ccc(F)cc2)N2CCN(C/C=C/c3ccccc3)CC2)cc1 [flunarizine] | – | bind to L-type channels | not to T or N channels | – | – | – | – | – | – | – | –
N=C(N)NCCC[C@H](NC(=O)[C@@H](N)CCCNC(=N)N)C(=O)NCCN(CCNC(=O)[C@H](CCCNC(=N)N)NC(=O)[C@@H](N)CCCNC(=N)N)CCNC(=O)[C@H](CCCNC(=N)N)NC(=O)[C@@H](N)CCCNC(=N)N [CYP-PA2, Tris(arginyl-arginyl-2-aminoethyl)amine] | somewhat more potent than the tri-arginine compound, CYP-PA1 | – | – | substantial neuroprotective activity; also recorded: potent neuroprotective benefits | 42 | 43 | 37 | 38 | good neuroprotective activity; also recorded: substantial and beneficial protection against actual ischemia | > 100 | statistical significance of reduction of neuronal damage ([2]; 10 mg/kg IP single injection): did not reach the 95% confidence level; neurons damaged ([2]; 10 mg/kg IP single injection 30 minutes before ischemia, untreated control 74.6%): 56.1%; neurons showing visible damage ([2]; 2 x 30 mg/kg IP, 30 minutes before and 90 minutes after ischemia, untreated control 74.6%): 40.9%; statistical significance of neuroprotective activity ([2]; 2 x 30 mg/kg IP, confidence level): > 95%; LD50 ([3]; read-out: LD50): ~125 mg/kg; LD50 ([3]; read-out: LD50 level): 125 mg/kg
